In patent publication US12673987B2, “Method to identify compounds useful to treat dysregulated lipogenesis, diabetes, and related disorders” (President and Fellows of Harvard College, priority 2017, dated 2026):

Assays:
aP2 [1] = target: T1, aP2 (Mus musculus, UniProt P04117); assay: Microscale thermophoresis assay; type: binding; set-up: His tag (cleaved yes); made in house; details: fluorescence labeled purified aP2 protein
T1 sequence (P04117 1-132): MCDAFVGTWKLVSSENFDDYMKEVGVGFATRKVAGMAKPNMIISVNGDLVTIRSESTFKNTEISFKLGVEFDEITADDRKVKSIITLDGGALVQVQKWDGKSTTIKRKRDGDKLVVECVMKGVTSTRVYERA
Description: It has been reported that both 2-AG and AEA have similar affinity for the CB1 receptor (Stella et al., (1997) Nature 388, 773-778; Felder et al., (1993) PNAS 90, 7656-7660), and only the level of 2-AG in serum is regulated in obesity (Bluher et al., (2006) Diabetes 55, 3053-3060). The potential interaction between 2-AG and aP2 was tested. […] Finally, to resolve the mechanism and structural determinants of this interaction, aP2 and 2-AG was co-crystallized, confirming the ability of these two molecules to bind. In Ca superposition, the root mean square deviation (RMSD) between mouse 2-AG/FABP4 complex and apo mouse FABP4 structure was about 0.548 A (see FIG. 3G). […] Due to steric hindrance of the acyl chain of 2-AG, the Phe57 side chain was modelled as open position in the complex structure. The polar head group of 2-AG was stabilized by hydrogen bond interactions with R127, R107, Y129 and S54 of FABP4 (see FIG. 3H).

3T3L1 adipocytes [2] = assay: FFA release from 3T3L1 adipocytes; type: cell-based, murine; details: adipocytes pretreated with 10 μM, starting 48 hours before collection of conditioned media
Description: (§1) Murine 3T3L1 adipocytes and human HepG2 cells were obtained from the ATCC. 3T3L1 adipocytes were maintained in Dulbecco Modified Eagle Medium (DMEM) containing 25 mM glucose (Gibco) supplemented with 10% cosmic calf serum (CCS), and adipocyte differentiation was induced as previously described (Ntambi et al., (1988) J. Biol. Chem. 263, 17291-17300). Briefly, preadipocytes were grown in 10 cm dishes until they are fully confluent. At confluent state, 10% bovine calf serum (BCS) containing DMEM medium was replaced with 10% fetal bovine serum (FBS) containing DMEM for two days. Differentiation was induced by FBS medium containing 5 μg/ml Insulin (Sigma, 15500), 0.5 mM IBMX (Sigma, 15879), 1 μM Dexamethasone (Sigma, D4902), and 1 μM Rosiglitazone (Cayman Chemical, 71740). After two days, medium was replaced with FBS medium containing 5 μg/ml Insulin every other day until the cells were completely differentiated at day 10. For siRNA experiment, differentiated 3T3-L1 adipocytes were transfected using Amaxa Nucleofector Kit L (Lonza, VCA-1005) according to the manufacturer's protocol. […]
Triglyceride (TG) levels were analyzed using triglyceride assay kit (Randox) and Cholesterol levels were analyzed using by Infinity cholesterol kid (Thermo Scientific). FFA levels in culture media were measured using a NEFA-HR2 kit (Wako) following the manufacturer's instructions.

HepG2 cells [3] = assay: DNL in HepG2 cells stimulated with 2-AG/aP2 complex (3H2O incorporation); type: cell-based, human; details: for stimulation of DNL in HepG2 cells: final concentration in culture media 10 nM
Description: (§2) For maintenance, HepG2 cells were cultured in DMEM containing 5.5 mM glucose (Gibco) supplemented with 10% FBS. For DNL and p-AMPK analysis, HepG2 cells were cultured in DMDM 3.3 mM glucose supplemented with 0.5% FBS, seeded 2×10^5 cells in 12 well plate or 4×10^5 cells in 6 well plate for DNL analysis and p-AMPK analysis, respectively.
(§3) For DNL analysis, after overnight culture, the cells were stimulated with conditioned media or 2-AG/aP2 complex and […] of ^3H2O were added 30 min after the stimulation (Gnoni et al., (1985) Biochem. & Biophysical Res. Comm. 128, 525-530; Lowenstein et al., Meth. Enzym. 35, 279-287). After 2 hours of incubation with ^3H2O, cells were washed with PBS and lysed with 0.1N NaOH. The cell lysate was analyzed for protein concentration and total lipid was extracted by Dole's extraction method (Dole et al., (1960) J. Biol. Chem. 235, 2595-2599). ^3H incorporation into de novo synthesized lipids were analyzed by scintillation count and calculated as count per μg protein. For p-AMPK analysis, after overnight culture, cells were stimulated with conditioned media or 2-AG/aP2 complex for 30 min. The cells were washed twice with ice cold PBS and lysed with ice cold RIPA buffer (Cell Signaling) supplemented with 1 mM PMSF. AMPK phosphorylation was determined by western blot (see below).
(§4) 10 or 20 μM delipidated mouse recombinant aP2 protein with or without 10 μM 2-AG were diluted in 50 mM potassium phosphate buffer (pH 7.4) and incubated at 37C for overnight. The ratio of aP2 binding to 2-AG was determined by 8-Anilinonaphthalene-1-sulfonic acid (ANS) assay. For antibody neutralization, IgG, CA33, or CA15 antibody at final concentration of 20 μM was added to 50 mM potassium phosphate buffer (pH 7.4) only or to delipidated mouse recombinant aP2 protein (final 10 μM) with 2-AG (final 10 μM) solution in 50 mM potassium phosphate buffer (pH 7.4) and incubated at 37° C. overnight. Final concentration in culture media for aP2, 2-AG, and antibodies were 10, 10, and 20 nM, respectively.

HepG2 cells [4] = assay: De novo lipogenesis (DNL) in HepG2 cells treated with conditioned media from lipolysis-stimulated adipocytes (3H2O incorporation); type: cell-based, human
Description: Murine 3T3L1 adipocytes and human HepG2 cells were obtained from the ATCC. 3T3L1 adipocytes were maintained in Dulbecco Modified Eagle Medium (DMEM) containing 25 mM glucose (Gibco) supplemented with 10% cosmic calf serum (CCS), and adipocyte differentiation was induced as previously described (Ntambi et al., (1988) J. Biol. Chem. 263, 17291-17300). Briefly, preadipocytes were grown in 10 cm dishes until they are fully confluent. At confluent state, 10% bovine calf serum (BCS) containing DMEM medium was replaced with 10% fetal bovine serum (FBS) containing DMEM for two days. Differentiation was induced by FBS medium containing 5 μg/ml Insulin (Sigma, 15500), 0.5 mM IBMX (Sigma, 15879), 1 μM Dexamethasone (Sigma, D4902), and 1 μM Rosiglitazone (Cayman Chemical, 71740). After two days, medium was replaced with FBS medium containing 5 μg/ml Insulin every other day until the cells were completely differentiated at day 10. For siRNA experiment, differentiated 3T3-L1 adipocytes were transfected using Amaxa Nucleofector Kit L (Lonza, VCA-1005) according to the manufacturer's protocol. Briefly, differentiated adipocytes were trypsinized and centrifuged at 100 g for 10 minutes. 3×10^6 cells per 6-well were transfected with 120 pmol/sample Control siRNA (Dharmacon, D-001810-10) or mouse aP2 siRNA (Dharmacon, L-042923-01) using Nucleofector Program A-33. Transfected cells were seeded in Collagen I coated 6-well plates (Corning, 356400). Conditioned media for stimulation of HepG2 cells were prepared in DMDM 3.3 mM glucose supplemented with 0.5% FBS before (basal) and after (lipolysis stimulated) the lipolysis stimulation with 1 mM IBMX. For explant studies, adipose tissue was removed from 8-12 weeks-old littermate mice, minced and washed 5× with DMEM high glucose supplemented with 10% CCS. Twenty pieces of adipose tissue were placed into 6-well plates in 2 ml DMEM high glucose with 10% CCS and incubated for 1 hr. Then conditioned media for stimulation of HepG2 cells were prepared in […] 3.3 mM glucose supplemented with 0.5% FBS before (basal) and after (lipolysis stimulated) the lipolysis stimulation with 1 mM 3-isobutyl-1-methylxanthine (IBMX). For antibody neutralization, 10 nM (for 3T3L1 cells) or 20 nM (for adipose tissue explant) of IgG, CA33, or CA15 antibody was added to DMDM 3.3 mM glucose supplemented with 0.5% FBS was used for the preparation of “basal” and “lipolysis stimulated” conditioned media.
as §2
as §3, with “After 2 hours of incubation with ^3H2O, cells were washed with PBS and lysed with 0.1N NaOH.” left out, “For p-AMPK analysis, after overnight culture, cells were stimulated with conditioned media or 2-AG/aP2 complex for 30 min. The cells were washed twice with ice cold PBS and lysed with ice cold RIPA buffer (Cell Signaling) supplemented with 1 mM PMSF.” left out

3T3L1 adipocytes [5] = assay: aP2 secretion from 3T3L1 adipocytes into conditioned media; type: cell-based, murine; details: adipocytes pretreated with 10 μM, starting 48 hours before collection of conditioned media
Description: as §1, with “protocol. Briefly, differentiated adipocytes were trypsinized and centrifuged at 100 g for 10 minutes. 3×10^6 cells per 6-well were transfected with 120 pmol/sample Control siRNA (Dharmacon, D-001810-10) or mouse aP2 siRNA (Dharmacon, L-042923-01) using Nucleofector Program A-33.” for “protocol.”

aP2 [6] = target: T1, aP2; assay: 8-Anilinonaphthalene-1-sulfonic acid (ANS) binding assay; set-up: His tag (cleaved yes); made in house; host or cells: Escherichia coli BL21DE3 (Pet28a plasmid)
Description: as §4
aP2 or aP2/lipid solution (final aP2 concentration 1 μM) and ANS (final 5 μM) was diluted in 50 mM potassium phosphate buffer (pH 7.4) and fluorescence Ex/Em 375/475 was measured.

AMPK(Thr172) = assay: AMPK phosphorylation in HepG2 cells by western blot; type: cell-based, human; details: 5 μM alone
Description: as §2
as §3, with “For p-AMPK analysis, after overnight culture, cells were stimulated with conditioned media or 2-AG/aP2 complex for 30 min. The cells were washed twice with ice cold PBS and lysed with ice cold RIPA buffer (Cell Signaling) supplemented with 1 mM PMSF.” left out
The antibodies used were rabbit anti-pAMPK (Cell Signaling), anti-actin HRP conjugated (Abcam), in-house anti-aP2 (H3) HRP conjugated antibodies. For quantification, Western blot images were captured and band intensities were analyzed using ImageJ software.

With `CCCCCCCC/C=C\CCCCCCCC(=O)O` [oleate] the “Kd of direct binding to aP2” value (aP2 [1]) was “an affinity similar to that observed for oleate”.

With `CCc1c(-c2ccccc2)c(-c2ccccc2)nn1-c1ccccc1-c1cccc(OCC(=O)O)c1` [BMS-309403] the FFA secretion (3T3L1 adipocytes [2]) was “did not alter”, the “effect of 2-AG/aP2 complex on DNL in HepG2 cells” value (HepG2 cells [3]; added during 2-AG/aP2 complex formation) was “eliminated the effect of 2-AG/aP2 complex on DNL” and the “ability of conditioned media from lipolysis-stimulated 3T3L1 adipocytes to induce DNL in HepG2 cells” value (HepG2 cells [4]; 3T3L1 adipocytes pretreated with 10 μM, starting 48 hours before collection) was “completely inhibited”. The “effect on DNL in HepG2 cells treated with conditioned media from Fabp-deficient adipocytes” value (HepG2 cells [4]; Fabp-deficient adipocytes pre-incubated with 10 μM) was “no additional or Fabp-independent effect on DNL” and the aP2 secretion (3T3L1 adipocytes [5]) was “did not alter”.

`Cc1c(C(=O)NN2CCCCC2)nn(-c2ccc(Cl)cc2Cl)c1-c1ccc(Cl)cc1` [Rimonabant] was tested, and the “induction of DNL by conditioned media from lipolysis-stimulated 3T3L1 adipocytes” value (HepG2 cells [4]; HepG2 cells treated with 1 μM) was “completely inhibited induction of DNL”.

With `CCCCC/C=C\C/C=C\C/C=C\C/C=C\CCCC(=O)OC(CO)CO` [2-AG, 2-Arachidonoylglycerol] the “stimulation of DNL in HepG2 cells” value (HepG2 cells [3]) was “nor 2-AG alone stimulated DNL”, the “binding of 2-AG to aP2 by ANS assay” value (aP2 [6]; after overnight incubation of delipidated recombinant aP2 with 2-AG) was “confirmed binding” and the “binding affinity of aP2 to the lipid, substrate competition with ANS” value (aP2 [6]; compared with mall (Fabp5)) was “same affinity as does mall”. The “dephosphorylation of AMPK(Thr172) in HepG2 cells” value (AMPK(Thr172)) was “same level”.

B1: aP2: delipidated mouse recombinant aP2 protein (adipocyte lipid binding protein) (protein)
chain: CDAFVGTWKLVSSENFDDYMKEVGVGFATRKVAGMAKPNMIISVNGDLVTIRSESTFKNTEISFKLGVEFDEITADDRKVKSIITLDGGALVQVQKWDGKSTTIKRKRDGDKLVVECVMKGVTSTRVYERA
For B1, the “stimulation of DNL in HepG2 cells” value (HepG2 cells [3]) was “neither aP2 nor 2-AG alone stimulated DNL” and the “rescue of DNL in HepG2 cells” value (HepG2 cells [4]; added to conditioned media from 3T3L1 adipocytes with siRNA-mediated aP2 suppression) was “not sufficient to rescue DNL”.

B2: CA33: therapeutically active aP2 monoclonal antibody; the rabbit 909 heavy and light chain comprise CA33 (antibody, V domains shown)
VH: QSVEESGGRLVTPGTPLTLTCTVSGFSLSTYYMSWVRQAPGKGLEWIGIIYPSGSTYCASWAKGRFTISKASTTVDLKITSPTTEDTATYFCARPDNDGTSGYLSGFGLWGQGTLVTVSS
VL: DVVMTQTPASVSEPVGGTVTIKCQASEDISRYLVWYQQKPGQPPKRLIYKASTLASGVPSRFKGSGSGTDFTLTISDLECDDAATYYCQCTYGTYAGSFFYSFGGGTEVVVE
modifications: Rabbit Ab 909 VH region; Rabbit Ab 909 VL-region
B2 was tested, and the “ability of 2-AG/aP2 complex to regulate DNL in HepG2 cells” value (HepG2 cells [3]; complex formed in the presence of antibody (20 μM, final 20 nM in culture media)) was “lost its ability to regulate DNL” and the “induction of DNL by conditioned media from lipolysis stimulated adipocytes in HepG2 cells” value (HepG2 cells [4]; antibody (10 nM for 3T3L1 cells) added to conditioned media, IBMX lipolysis stimulation) was “completely prevented the induction of DNL”.
